Measurements as given in patent US9296720B2, “Carboxamide-substituted heteroaryl-pyrazoles and the use thereof” (AiCuris GmbH & Co. KG, priority 2011, dated 2016).
Like-named read-outs stand apart in the source and are kept apart here.

How the values were obtained:
Format in all cases: cell-based
[1] = system: HIV-1NL4-3 Wild Type; test: Luminescence reduction assay, MT4 cells infected with HIV-1NL4-3 luciferase reporter virus, wild type; details: 2% FCS
Procedure, shortened: (§1)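 MT4 cells pellet-infected 2 h at 37° C with HIV-1NL4-3 reporter virus (lu164 replacing nef; wild type or site-directed RT mutants), washed, then incubated with compound dilutions (1% DMSO, 2% or 10% FCS) for 5 days. Secreted luciferase read with coelenterazine buffer; EC50 = concentration halving RLU versus untreated infected cells.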

[2] = system: HIV-1LAI Wild Type; test: AlamarBlue viability assay, HIV-1LAI-infected MT4 cells; details: 10% FCS
Procedure, shortened: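 MT4 cells infected with HIV-1LAI (MOI 0.01, supernatant infection) cultured 5 days at 37 °C with compounds in RPMI with 2% or 10% FCS, 1% DMSO final. AlamarBlue fluorescence after 3 h; EC50 as 50% protection relative to uninfected cells, CC50 from high-concentration cytotoxicity.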

[3] = system: HIV-1NL4-3 K103N-Y181C; test: Luminescence reduction assay, MT4 cells infected with HIV-1NL4-3 luciferase reporter virus, RT mutant K103N-Y181C
Procedure, shortened: as §1

[4] = Human immunodeficiency virus 1, MT4, MT4 cells
[5] = Human immunodeficiency virus 1, MT4, read-out: EC50 (μM) MT4 Cells HIV-1NL4-3 K103N-Y181C 2% FCS, MT4 cells, HIV-1NL4-3 K103N-Y181C, 2% FCS

Compound	EC50 [1, 4] [µM]	EC50 [2, 4] [µM]	EC50 [3, 5] [µM]	EC50 ([1]; MT4 cells) [µM]	EC50 ([2]; MT4 cells) [µM]	EC50 ([3]; read-out: EC50 (μM) MT4 Cells HIV-1NL4-3 K103N-Y181C 2% FCS, MT4 cells, HIV-1NL4-3 K103N-Y181C, 2% FCS) [µM]
O=C(c1cc(-c2cc(F)cc(OCC(F)(F)F)c2)n(-c2cccnc2)n1)N1CC[S+]([O-])C1 (racemic) [Example 73, {5-[3-Fluoro-5-(2,2,2-trifluoroethoxy)phenyl]-1-(pyridin-3-yl)-1H-pyrazol-3-yl}(1-oxido-1,3-thiazolidin-3-yl)methanone]	0.018	0.243	0.951			
O=C1CN(C(=O)c2cc(-c3cc(F)cc(Br)c3)n(-c3cccnc3)n2)CN1 [Example 90, 1-{[5-(3-Bromo-5-fluorophenyl)-1-(pyridin-3-yl)-1H-pyrazol-3-yl]carbonyl}imidazolidin-4-one]	0.003	0.011	0.033			
O=C(c1cc(-c2cc(F)cc(OCC(F)(F)F)c2)n(-c2ccc[n+]([O-])c2)n1)N1CCS(=O)(=O)C1 [Example 75, (1,1-Dioxido-1,3-thiazolidin-3-yl) {5-[3-fluoro-5-(2,2,2-trifluoroethoxy)phenyl]-1-(1-oxidopyridin-3-yl)-1H-pyrazol-3-yl}methanone]	0.272	> 3.3	> 3.3			
O=C1CN(C(=O)c2cc(-c3cc(Br)cc(OC(F)(F)F)c3)n(-c3cncc(Cl)c3)n2)CCN1 [Example 43, 4-({5-[3-Bromo-5-(trifluoromethoxy)phenyl]-1-(5-chloropyridin-3-yl)-1H-pyrazol-3-yl}carbonyl)piperazin-2-one]	0.103	0.751	0.529			
O=C1CN(C(=O)c2cc(-c3cc(F)cc(Cl)c3)n(-c3ccncc3)n2)CN1 [Example 13, 1-{[5-(3-Chloro-5-fluorophenyl)-1-(pyridin-4-yl)-1H-pyrazol-3-yl]carbonyl}imidazolidin-4-one]	0.323	1.34	0.88			
COc1cc(OC(F)(F)F)cc(-c2cc(C(=O)N3CCNC(=O)C3)nn2-c2cccnc2)c1 [Example 85, 4-({5-[3-Methoxy-5-(trifluoromethoxy)phenyl]-1-(pyridin-3-yl)-1H-pyrazol-3-yl}carbonyl)piperazin-2-one]	0.05	0.302	0.123			
O=C(c1cc(-c2cc(Br)cc(OC(F)(F)F)c2)n(-c2ccc(Cl)nc2)n1)N1CC[S+]([O-])C1 (racemic) [Example 37, {5-[3-Bromo-5-(trifluoromethoxy)phenyl]-1-(6-chloropyridin-3-yl)-1H-pyrazol-3-yl}(1-oxido-1,3-thiazolidin-3-yl)methanone]	0.004	2.32	0.005			
Cc1cc(-n2nc(C(=O)N3CNC(=O)C3)cc2-c2cc(Br)cc(OC(F)(F)F)c2)ccn1 [Example 53, 1-({5-[3-Bromo-5-(trifluoromethoxy)phenyl]-1-(2-methylpyridin-4-yl)-1H-pyrazol-3-yl}carbonyl)imidazolidin-4-one]	0.023	0.302	0.008			
O=C(c1cc(-c2cc(Cl)cc(OC(F)(F)F)c2)n(-c2cccnc2)n1)N1CCSC1 [Example 77, {5-[3-Chloro-5-(trifluoromethoxy)phenyl]-1-(pyridin-3-yl)-1H-pyrazol-3-yl}(1,3-thiazolidin-3-yl)methanone]	0.067	0.861	0.364			
O=C(c1cc(-c2cc(F)cc(Cl)c2)n(-c2cccnc2)n1)N1CC[S+]([O-])C1 (racemic) [Example 6-2, [5-(3-Chloro-5-fluorophenyl)-1-(pyridin-3-yl)-1H-pyrazol-3-yl](1-oxido-1,3-thiazolidin-3-yl)methanone]				0.007	0.112	0.986
O=C1CN(C(=O)c2cc(-c3cc(F)cc(OC(F)F)c3)n(-c3ccnc(Cl)c3)n2)CCN1 [Example 69, 4-({1-(2-Chloropyridin-4-yl)-5-[3-(difluoromethoxy)-5-fluorophenyl]-1H-pyrazol-3-yl}carbonyl)piperazin-2-one]	0.32	1.98	1.14			
O=C1CN(C(=O)c2cc(-c3cc(Cl)cc(OC(F)F)c3)n(-c3cccnc3)n2)CN1 [Example 81, 1-({5-[3-Chloro-5-(difluoromethoxy)phenyl]-1-(pyridin-3-yl)-1H-pyrazol-3-yl}carbonyl)imidazolidin-4-one]	0.003	0.015	0.008			
O=C1CN(C(=O)c2cc(-c3cc(Br)cc(OC(F)(F)F)c3)n(-c3cccc(Cl)n3)n2)CN1 [Example 27, 1-({5-[3-Bromo-5-(trifluoromethoxy)phenyl]-(6-chloropyridin-2-yl)-1H-pyrazol-3-yl}carbonyl)imidazolidin-4-one]	0.098	> 3.3	0.114			
Cc1cc(-n2nc(C(=O)N3CNC(=O)C3)cc2-c2cc(F)cc(Cl)c2)ccn1 [Example 21, 1-{[5-(3-Chloro-5-fluorophenyl)-1-(2-methylpyridin-4-yl)-1H-pyrazol-3-yl]carbonyl}imidazolidin-4-one]	0.092	0.397	0.436			
Cc1ccc(-n2nc(C(=O)N3CNC(=O)C3)cc2-c2cc(Br)cc(OC(F)(F)F)c2)cn1 [Example 46, 1-({5-[3-Bromo-5-(trifluoromethoxy)phenyl]-1-(6-methylpyridin-3-yl)-1H-pyrazol-3-yl}carbonyl)imidazolidin-4-one]	0.007	0.097	0.007			
O=C1CN(C(=O)c2cc(-c3cncc(C(F)(F)F)c3)n(-c3ccc(F)c(Cl)c3)n2)CN1 [Example 106, 1-({1-(3-Chloro-4-fluorophenyl)-5-[5-(trifluoromethyl)pyridin-3-yl]-1H-pyrazol-3-yl}carbonyl)imidazolidin-4-one]	0.082	0.084	0.12			
O=C(c1cc(-c2cc(Br)cc(OC(F)(F)F)c2)n(-c2cccnc2)n1)N1CCS(=O)(=O)C1 [Example 32, {5-[3-Bromo-5-(trifluoromethoxy)phenyl]-1-(pyridin-3-yl)-1H-pyrazol-3-yl}(1,1-dioxido-1,3-thiazolidin-3-yl)methanone]	0.007	0.083	0.014			
O=C1CN(C(=O)c2cc(-c3cncc(F)c3)n(-c3ccc(F)c(Cl)c3)n2)CCN1 [Example 99, 4-{[1-(3-Chloro-4-fluorophenyl)-5-(5-fluoropyridin-3-yl)-1H-pyrazol-3-yl]carbonyl}piperazin-2-one]	0.113	0.258	1.31			
O=C1CN(C(=O)c2cc(-c3cncc(OC(F)F)c3)n(-c3ccc(F)c(Cl)c3)n2)CN1 [Example 105, 1-({1-(3-Chloro-4-fluorophenyl)-5-[5-(difluoromethoxy)pyridin-3-yl]-1H-pyrazol-3-yl}carbonyl)imidazolidin-4-one]	0.018	0.116	0.007			
O=C(c1cc(-c2cc(F)cc(OC(F)(F)F)c2)n(-c2cccnc2)n1)N1CCSC1 [Example 59, {5-[3-Fluoro-5-(trifluoromethoxy)phenyl]-1-(pyridin-3-yl)-1H-pyrazol-3-yl}(1,3-thiazolidin-3-yl)methanone]	0.256	2.78	1.11			
O=C1CN(C(=O)c2cc(-c3cc(F)cc(Cl)c3)n(-c3ccnc(C(F)(F)F)c3)n2)CCN1 [Example 17]	0.248	3.67	> 3.3			
O=C1CN(C(=O)c2cc(-c3cc(F)cc(Br)c3)n(-c3cccnc3)n2)CCN1 [Example 91, 4-{[5-(3-Bromo-5-fluorophenyl)-1-(pyridin-3-yl)-1H-pyrazol-3-yl]carbonyl}piperazin-2-one]	0.006	0.055	0.392			
O=C(c1cc(-c2cc(F)cc(Cl)c2)n(-c2ccnc(C(F)(F)F)c2)n1)N1CCS(=O)(=O)C1 [Example 20, {5-(3-Chloro-5-fluorophenyl)-1-[2-(trifluoromethyl)pyridin-4-yl]-1H-pyrazol-3-yl}(1,1-dioxido-1,3-thiazolidin-3-yl)methanone]	0.162	1.46	1.39			
O=C1CN(C(=O)c2cc(-c3cc(F)cc(OCC(F)(F)F)c3)n(-c3cccnc3)n2)CCN1 [Example 71, 4-({5-[3-Fluoro-5-(2,2,2-trifluoroethoxy)phenyl]-1-(pyridin-3-yl)-1H-pyrazol-3-yl}carbonyl)piperazin-2-one]	0.013	0.246	> 3.3			
Cc1ccc(-n2nc(C(=O)N3CNC(=O)C3)cc2-c2cc(F)cc(Cl)c2)cn1 [Example 11, 1-{[5-(3-Chloro-5-fluorophenyl)-1-(6-methylpyridin-3-yl)-1H-pyrazol-3-yl]carbonyl}imidazolidin-4-one]	0.007	0.057	0.061			
O=C1CN(C(=O)c2cc(-c3cnc(F)c(Cl)c3)n(-c3ccc(F)c(Cl)c3)n2)CN1 [Example 111, 1-{[1-(3-Chloro-4-fluorophenyl)-5-(5-chloro-6-fluoropyridin-3-yl)-1H-pyrazol-3-yl]carbonyl}imidazolidin-4-one]	0.03	0.024	0.173			
O=C1CN(C(=O)c2cc(-c3cc(F)cc(Br)c3)n(-c3ccnc(Cl)c3)n2)CN1 [Example 92, 1-{[5-(3-Bromo-5-fluorophenyl)-1-(2-chloropyridin-4-yl)-1H-pyrazol-3-yl]carbonyl}imidazolidin-4-one]	0.005	0.026	0.033			
